Consider one compound from US20260007712A1, “COMPOSITION FOR PREVENTING, AMELIORATING OR TREATING PERIODONTAL DISEASES” (NUTRACORE CO., LTD., priority 2022, published 2026).

Holding throughout (type): in vivo
Experiment [1] relates to collagen fibers in gingival tissue. In words: Collagen fiber content in gingival tissue, EPD rat model. The conditions noted are these: EPD rats; extracts 200 mg/kg, IND 5 mg/kg, oral once daily for 10 days; FIG. 6. The source says:
(§1) In this study, as part of the development of functional food ingredients derived from natural products to improve periodontitis and periodontal bone damage, three types of natural product extracts, dried rehmanniae radix, wasabi leaf, and Sancho extracts, that are well known for various physiological activities, including anti-inflammatory and antioxidant effects were compared and explored using a tooth neck ligation rat periodontal disease (experimental periodontitis; EPD) model to investigate the efficacy against periodontitis and periodontal bone loss.
(§2) Specifically, a total of 121 SPF/VAF Outbred Crl:CD [SD] male rats (OrientBio, Seungnam, Korea) were obtained, and after acclimatization for 7 days, experimental animals with a constant body weight were selected, and 10 animals per group were divided and tested in 7 groups below (normal medium control group: average 248.90±8.23 g, 236.00˜261.00 g; EPD-induced group: average 248.14±9.85 g, 219.00˜272.00 g). […]
(§3) Daily body weight was measured from 1 day before ligation, periodontal bone loss rate was measured on the final sacrifice day, some gingival tissue was extracted, changes in IL-1β, TNF-α, and MDA content were observed. The number of infiltrating inflammatory cells in the gingival tissue, periodontal bone volume (alveolar bone volume), and collagen content in the gums were measured.

Experiment [2] deals with periodontal bone mass (alveolar bone volume). In words: Periodontal bone mass (alveolar bone volume), EPD rat model. Particulars: EPD rats; extracts 200 mg/kg, IND 5 mg/kg, oral once daily for 10 days; FIG. 4.
Source text: as §1, §2, §3

Experiment [3] relates to infiltrating inflammatory cells in gingival tissue. Briefly: Number of infiltrating inflammatory cells in gingival tissue, EPD rat model. The conditions noted are these: EPD rats; extracts 200 mg/kg, IND 5 mg/kg, oral once daily for 10 days; FIG. 5.
Source text: as §1, §2, §3

A further experiment deals with TNF-α. In words: TNF-α content in gingival tissue, EPD rat model. Particulars: EPD rats; extracts 200 mg/kg, IND 5 mg/kg, oral once daily for 10 days; bottom of FIG. 7.
Source text: as §1, §2, §3

Another experiment relates to IL-1β. Briefly: IL-1β content in gingival tissue, EPD rat model. Particulars: EPD rats; extracts 200 mg/kg, IND 5 mg/kg, oral once daily for 10 days; top of FIG. 7.
Source text: as §1, §2, §3

Experiment [4] relates to periodontal bone loss (alveolar bone loss). Briefly: Periodontal bone loss rate, tooth neck ligation rat periodontal disease (EPD) model. Particulars: EPD rats; extracts 200 mg/kg, IND 5 mg/kg, oral once daily for 10 days from 24 h after ligation; FIG. 3.
Source text: as §1, §2, §3

The subject of another experiment is MDA. In words: MDA content in gingival tissue, EPD rat model. Particulars: EPD rats; extracts 200 mg/kg, IND 5 mg/kg, oral once daily for 10 days; FIG. 8.
Source text: as §1, §2, §3

With `COc1ccc2c(c1)c(CC(=O)O)c(C)n2C(=O)c1ccc(Cl)cc1` [IND, Indomethacin], in experiment [1], the “change in proportion of collagen fibers in gingival tissue compared to the EPD control group” value is 148.65%. In addition, the “change in periodontal bone mass compared to the EPD control group” value in experiment [2] turned out to be 188.14%. In addition, the “change in number of infiltrating inflammatory cells in gingival tissue compared to the EPD control group” value in experiment [3] was −57.61%. The “change in TNF-α content in gingival tissue compared to the EPD control group” value in the experiment with TNF-α is listed as −50.46%. Besides, the “change in IL-1β content in gingival tissue compared to the EPD control group” value with IL-1β is recorded as −54.75%. Besides, in experiment [4], the “change in periodontal bone loss rate compared to the EPD control group” value is on record as −26.49%. Further, the “change in MDA content in gingival tissue compared to the EPD control group” value with MDA is recorded as −42.44%.
